According to publication PMC3565575 (Bioorganic & medicinal chemistry, 2010):

Experiments:
[1] = test system: SKOV-3 (human ovarian adenocarcinoma); assay: Multi-plex cytotoxicity assay, SKOV-3; assay type: cell-based; conditions: SKOV-3 cells
sigma-1 receptor = sigma-1 receptor (Cavia porcellus, UniProt Q60492); assay: Sigma-1 receptor competitive binding against; conditions: Sigma 1 K1 values (nM) (± SEM, n=3), R^2 value, guinea pig liver membranes, 10 nM (+)-[3H]-pentazocine, brackets: SEM
Chain of sigma-1 receptor (Q60492 whole entry): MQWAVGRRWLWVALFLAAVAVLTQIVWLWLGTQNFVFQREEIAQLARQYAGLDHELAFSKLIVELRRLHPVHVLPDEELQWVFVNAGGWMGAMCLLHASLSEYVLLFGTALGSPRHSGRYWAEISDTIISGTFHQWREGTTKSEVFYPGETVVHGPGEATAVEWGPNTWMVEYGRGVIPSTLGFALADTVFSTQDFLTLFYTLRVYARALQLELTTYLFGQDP

SMILES	Growth inhibition (in words) [1]	Ki (sigma-1 receptor) [nM]
CCCCN(CCCC)CCCc1ccc(F)cc1 [compound 9, N.N-Dibutyl-3-(4-fluorophenyl)propylamine]	the only cell line whose growth is inhibited by compound 9	
CCCN(Cc1cccc([N+](=O)[O-])c1)C(=O)CCc1ccc(F)cc1 [compound 6, 3-(4-Fluorophenyl)-N-(3-nitrobenzyl)-N-propylpropanamide]		> 100000
